The test system of the experiment is Min6 cell. The experiment in a line: Insulin secretion response of beta cell line to formula I compounds (insulin ELISA). It is filed as cell-based. To be noted: rank according to % increase versus control at most effective dose. The procedure, abridged: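 After compound or vehicle exposure, Min6 cells were held 2 h in glucose-free medium and preincubated 30 min at 37° C in glucose-free KRBH (pH 7.4, 0.1% BSA). They were then incubated 30 min at 37° C in KRBH with varying glucose. Secreted insulin and acid-ethanol-extracted intracellular insulin were measured by ELISA.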
In general terms: In an ELISA, binding on a coated surface is turned into a signal by an enzyme label.

`O=C1CCN(CC(O)COc2ccc(F)cc2)c2ccc(F)cc2CN1C1CC1` (stereo not shown) [Compound 65, 5-cyclopropyl-8-fluoro-1-(3-(4-fluorophenoxy)-2-hydroxypropyl)-2,3,5,6-tetrahydrobenzo[b][1,5]diazocin-4(1H)-one]: the “Insulin secretion (Min6 cell) Range 1 to 5” value (“Insulin secretion” below) is listed as 3 (3: 120-140% of control).

Take `O=C1CCN(C[C@H](O)COCc2ccccc2)c2ccc(F)cc2CN1C1CC1` [Compound 66, (S)-1-(3-(benzyloxy)-2-hydroxypropyl)-5-cyclopropyl-8-fluoro-2,3,5,6-tetrahydrobenzo[b][1,5]diazocin-4(1H)-one]: the “Insulin secretion” value was 1 (1: 90-110% of control).

Turning to `COc1ccc2c(c1)CN(C1CC1)C(=O)CCN2C[C@H](O)COCc1ccccc1` [Compound 67, (S)-1-(3-(benzyloxy)-2-hydroxypropyl)-5-cyclopropyl-8-methoxy-2,3,5,6-tetrahydrobenzo[b][1,5]diazocin-4(1H)-one], the “Insulin secretion” value was 3 (3: 120-140% of control). The same measure for `COc1ccc2c(c1)CN(C1CC1)C(=O)CCN2C[C@@H](O)CO` [Compound 68, (R)-5-cyclopropyl-1-(2,3-dihydroxypropyl)-8-methoxy-2,3,5,6-tetrahydrobenzo[b][1,5]diazocin-4(1H)-one]: 3 (3: 120-140% of control).

With `O=C(c1ccc(F)cc1)N1CCC(=O)N(C2CC2)Cc2cc(F)ccc21` [Compound 69, 5-cyclopropyl-8-fluoro-1-(4-fluorobenzoyl)-2,3,5,6-tetrahydrobenzo[b][1,5]diazocin-4(1H)-one], the “Insulin secretion” value is on record as 1 (1: 90-110% of control).

As to `O=C(c1cccnc1)N1CCC(=O)N(C2CC2)Cc2cc(F)ccc21` [Compound 70, 5-cyclopropyl-8-fluoro-1-nicotinoyl-2,3,5,6-tetrahydrobenzo[b][1,5]diazocin-4(1H)-one], the “Insulin secretion” value is given as 1 (1: 90-110% of control).

As for `O=C(Cc1ccc(F)cc1)N1CCC(=O)N(C2CC2)Cc2cc(F)ccc21` [Compound 71, 5-cyclopropyl-8-fluoro-1-(2-(4-fluorophenyl)acetyl)-2,3,5,6-tetrahydrobenzo[b][1,5]diazocin-4(1H)-one], the “Insulin secretion” value was 4 (4: 140-170% of control). For the molecule `O=C1CCN(Cc2ccccc2)c2ccc(F)cc2CN1C1CC1` [Compound 72, 1-benzyl-5-cyclopropyl-8-fluoro-2,3,5,6-tetrahydrobenzo[b][1,5]diazocin-4(1H)-one], the “Insulin secretion” value is on record as 3 (3: 120-140% of control). Take `O=C1CCN(CCc2ccccc2)c2ccc(F)cc2CN1C1CC1` [Compound 73, 5-cyclopropyl-8-fluoro-1-phenethyl-2,3,5,6-tetrahydrobenzo[b][1,5]diazocin-4(1H)-one]: the “Insulin secretion” value was 4 (4: 140-170% of control). The figure for `O=C1CCN(CCCc2ccccc2)c2ccc(F)cc2CN1C1CC1` [Compound 74, 5-cyclopropyl-8-fluoro-1-(3-phenylpropyl)-2,3,5,6-tetrahydrobenzo[b][1,5]diazocin-4(1H)-one] is 4 (4: 140-170% of control); for `O=C(c1ccc(F)cc1)N1CCC(=O)N(C2CC2)Cc2cccnc21` [Compound 75, 5-cyclopropyl-1-(4-fluorobenzoyl)-2,3,5,6-tetrahydropyrido[2,3-b][1,5]diazocin-4(1H)-one] it is 4 (4: 140-170% of control); for `O=C(Cc1ccc(F)cc1)N1CCC(=O)N(C2CC2)Cc2cccnc21` [Compound 76, 5-cyclopropyl-1-(2-(4-fluorophenyl)acetyl)-2,3,5,6-tetrahydropyrido[2,3-b][1,5]diazocin-4(1H)-one] it is 5 (5: >170% of control).

For the molecule `O=C(c1cccnc1)N1CCC(=O)N(C2CC2)Cc2cccnc21` [Compound 77, 5-cyclopropyl-1-nicotinoyl-2,3,5,6-tetrahydropyrido[2,3-b][1,5]diazocin-4(1H)-one], the “Insulin secretion” value was 5 (5: >170% of control).

`O=C1CCNc2ccc(Cl)cc2CN1C1CC1` [Compound 78, 8-chloro-5-cyclopropyl-2,3,5,6-tetrahydrobenzo[b][1,5]diazocin-4(1H)-one]: the “Insulin secretion” value was 3 (3: 120-140% of control). Turning to `O=C1CCN(C[C@@H](O)COCc2ccccc2)c2ccc(Cl)cc2CN1C1CC1` [Compound 79, (R)-1-(3-(benzyloxy)-2-hydroxypropyl)-8-chloro-5-cyclopropyl-2,3,5,6-tetrahydrobenzo[b][1,5]diazocin-4(1H)-one], the “Insulin secretion” value was 1 (1: 90-110% of control). The figure for `O=C1CCNc2ccc3c(c2CN1C1CC1)OCCO3` [Compound 80, 11-cyclopropyl-2,3,8,9,11,12-hexahydro[1,4]dioxino[2,3-h][1,5]benzodiazocin-10(7H)-one] is 3 (3: 120-140% of control). In the case of `O=C1CCN(CC(O)COc2ccccc2)c2ccc(Cl)cc2CN1C1CC1` (stereo not shown) [Compound 81, 8-chloro-5-cyclopropyl-1-(2-hydroxy-3-phenoxypropyl)-2,3,5,6-tetrahydrobenzo[b][1,5]diazocin-4(1H)-one], the “Insulin secretion” value is recorded as 1 (1: 90-110% of control). For `O=C(CN1CCC(=O)N(C2CC2)Cc2cc(Cl)ccc21)c1ccc(Cl)cc1` [Compound 82, 8-chloro-1-(2-(4-chlorophenyl)-2-oxoethyl)-5-cyclopropyl-2,3,5,6-tetrahydrobenzo[b][1,5]diazocin-4(1H)-one], the “Insulin secretion” value was 1 (1: 90-110% of control). The figure for `O=C(CN1CCC(=O)N(C2CC2)Cc2cc(Cl)ccc21)c1cccc(F)c1` [Compound 83, 8-chloro-5-cyclopropyl-1-(2-(3-fluorophenyl)-2-oxoethyl)-2,3,5,6-tetrahydrobenzo[b][1,5]diazocin-4(1H)-one] is 1 (1: 90-110% of control); for `COc1ccc2c(c1)CN(C1CC1)C(=O)CCN2C(=O)c1ccno1` [Compound 84, 5-cyclopropyl-1-(isoxazole-5-carbonyl)-8-methoxy-2,3,5,6-tetrahydrobenzo[b][1,5]diazocin-4(1H)-one] it is 1 (1: 90-110% of control). With `O=C1CCN(CC(O)c2ccc(Cl)cc2)c2ccc(Cl)cc2CN1C1CC1` (stereo not shown) [Compound 85, 8-chloro-1-(2-(4-chlorophenyl)-2-hydroxyethyl)-5-cyclopropyl-2,3,5,6-tetrahydrobenzo[b][1,5]diazocin-4(1H)-one], the “Insulin secretion” value is 1 (1: 90-110% of control). In the case of `O=C1CCN(CC(O)c2cccc(F)c2)c2ccc(Cl)cc2CN1C1CC1` (stereo not shown) [Compound 86, 8-chloro-5-cyclopropyl-1-(2-(3-fluorophenyl)-2-hydroxyethyl)-2,3,5,6-tetrahydrobenzo[b][1,5]diazocin-4(1H)-one], the “Insulin secretion” value is 2 (2: 110-120% of control). As for `O=C1CCN(C[C@@H](O)COCc2ccccc2)c2ccc3c(c2CN1C1CC1)OCCO3` [Compound 88, 7-[(2R)-3-(benzyloxy)-2-hydroxypropyl]-11-cyclopropyl-2,3,8,9,11,12-hexahydro[1,4]dioxino[2,3-h][1,5]benzodiazocin-10(7H)-one], the “Insulin secretion” value is 1 (1: 90-110% of control). Take `COc1ccc2c(c1)CN(C1CC1)C(=O)CCN2C[C@@H](O)COc1ccc(Cl)cc1` [Compound 89, (R)-1-(3-(4-chlorophenoxy)-2-hydroxypropyl)-5-cyclopropyl-8-methoxy-2,3,5,6-tetrahydrobenzo[b][1,5]diazocin-4(1H)-one]: the “Insulin secretion” value is reported as 1 (1: 90-110% of control).

On to `COc1ccc2c(c1)CN(C1CC1)C(=O)CCN2C[C@H](O)COc1ccc(Cl)cc1` [Compound 90, (S)-1-(3-(4-chlorophenoxy)-2-hydroxypropyl)-5-cyclopropyl-8-methoxy-2,3,5,6-tetrahydrobenzo[b][1,5]diazocin-4(1H)-one], for which the “Insulin secretion” value is given as 1 (1: 90-110% of control). The same measure for `O=C(c1ccno1)N1CCC(=O)N(C2CC2)Cc2c1ccc1c2OCCO1` [Compound 91, 11-cyclopropyl-7-(isoxazol-5-ylcarbonyl)-2,3,8,9,11,12-hexahydro[1,4]dioxino[2,3-h][1,5]benzodiazocin-10(7H)-one]: 1 (1: 90-110% of control). The same measure for `O=C(c1ncoc1-c1ccccc1)N1CCC(=O)N(C2CC2)Cc2c1ccc1c2OCCO1` [Compound 92, 11-cyclopropyl-7-[(5-phenyl-1,3-oxazol-4-yl)carbonyl]-2,3,8,9,11,12-hexahydro[1,4]dioxino[2,3-h][1,5]benzodiazocin-10(7H)-one]: 1 (1: 90-110% of control); for `O=C(CN1CCC(=O)N(C2CC2)Cc2c1ccc1c2OCCO1)c1cccc(F)c1` [Compound 93, 11-cyclopropyl-7-[2-(3-fluorophenyl)-2-oxoethyl]-2,3,8,9,11,12-hexahydro[1,4]dioxino[2,3-h][1,5]benzodiazocin-10(7H)-one]: 1 (1: 90-110% of control).

In the case of `O=C(CN1CCC(=O)N(C2CC2)Cc2c1ccc1c2OCCO1)c1ccc(Cl)cc1` [Compound 94, 7-[2-(4-chlorophenyl)-2-oxoethyl]-11-cyclopropyl-2,3,8,9,11,12-hexahydro[1,4]dioxino[2,3-h][1,5]benzodiazocin-10(7H)-one], the “Insulin secretion” value was 1 (1: 90-110% of control). The same measure for `O=C1CCN(CC(O)COc2ccccc2)c2ccc3c(c2CN1C1CC1)OCCO3` (stereo not shown) [Compound 95, 11-cyclopropyl-7-(2-hydroxy-3-phenoxypropyl)-2,3,8,9,11,12-hexahydro[1,4]dioxino[2,3-h][1,5]benzodiazocin-10(7H)-one]: 1 (1: 90-110% of control); for `O=C1CCN(CC(O)c2cccc(F)c2)c2ccc3c(c2CN1C1CC1)OCCO3` (stereo not shown) [Compound 96, 11-cyclopropyl-7-[2-(3-fluorophenyl)-2-hydroxyethyl]-2,3,8,9,11,12-hexahydro[1,4]dioxino[2,3-h][1,5]benzodiazocin-10(7H)-one]: 3 (3: 120-140% of control).

For the origin of these results see patent US8765728B2, “[1,5]-diazocin derivatives” (MelliTech, priority 2009, dated 2014).
